# Calls of active or inactive are those of the source. The calls are words filed in the database; no cut-off is given here.
# What was measured:
# [1] = target: High affinity nerve growth factor receptor (Homo sapiens) (UniProt P04629); test: Inhibition of recombinant human His-tagged NTRK1 (441-796 residues) expressed in insect cells at 2 uM using Tyr 01 as substrate measured after 1 hr by Z'-LYTE assay relative to control; settings: Insect cell
# A549 [2] = test: Antitumor activity against human A549 cells xenografted in female nude mouse model assessed as substantial regression in large tumor growth at 50 mg/kg, po qd administered as 5 days on/2 days off regimen for 4 cycles; type: functional, organism-based; settings: time 28.0 day
# MDA-MB-361 [3] = test: Antitumor activity against human MDA-MB-361 cells xenografted in female nude mouse model assessed as suppression in P-S6 level at 6 to 12 mg/kg, po qd administered as 5 days on/2 days off regimen for 4 cycles by immunoblot analysis; type: functional, organism-based; settings: dose 6-12 mg/kg, time 28.0 day
# PC3MM2 = test: Antitumor activity against human PC3MM2 cells assessed as block the hypoxia-induced VEGF production in low oxygen at 0.3 micromol/L incubated for 24 hrs by ELISA analysis; type: functional, cell-based; settings: dose 0.3 µmol/L
# [4] = target: Casein kinase I isoform delta (Homo sapiens) (UniProt P48730); test: Inhibition of recombinant human full-length GST-tagged CSNK1D expressed in insect cells at 2 uM using Ser/Thr 11 as substrate measured after 1 hr by Z'-LYTE assay relative to control; settings: Insect cell
# Casein kinase I isoform delta (Homo sapiens), sequence (P48730 whole entry, looked up, the tested form may be a part, canonical isoform): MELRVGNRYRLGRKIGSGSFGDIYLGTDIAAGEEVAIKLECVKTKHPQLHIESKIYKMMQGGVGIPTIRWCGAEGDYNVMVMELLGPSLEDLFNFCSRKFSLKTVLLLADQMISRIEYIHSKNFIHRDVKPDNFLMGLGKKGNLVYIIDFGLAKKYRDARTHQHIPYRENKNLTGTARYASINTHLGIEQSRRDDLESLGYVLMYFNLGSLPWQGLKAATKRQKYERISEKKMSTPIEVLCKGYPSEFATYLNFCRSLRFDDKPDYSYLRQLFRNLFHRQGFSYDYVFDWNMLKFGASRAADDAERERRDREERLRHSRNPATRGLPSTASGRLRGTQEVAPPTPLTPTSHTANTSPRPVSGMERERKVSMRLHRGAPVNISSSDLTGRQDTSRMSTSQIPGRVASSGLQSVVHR
# [5] = target: Fibroblast growth factor receptor 2 (Homo sapiens) (UniProt P21802); test: Inhibition of recombinant human His-tagged FGFR2 (403-822 residues) expressed in baculovirus expression system at 2 uM using Tyr 04 as substrate measured after 1 hr by Z'-LYTE assay relative to control
# [6] = target: Ephrin type-A receptor 4 (Homo sapiens) (UniProt P54764); test: Inhibition of recombinant human GST-tagged EPHA4 (616-887 residues) expressed in insect cells at 2 uM using Tyr 02 as substrate measured after 1 hr by Z'-LYTE assay relative to control; settings: Insect cell
# [7] = target: Serine/threonine-protein kinase pim-1 (Homo sapiens) (UniProt P11309); test: Inhibition of recombinant human full length His-tagged PIM1 expressed in insect cells at 2 uM using Ser/Thr 07 as substrate measured after 1 hr by Z'-LYTE assay relative to control; settings: Insect cell
# Serine/threonine-protein kinase pim-1 (Homo sapiens), sequence (P11309 whole entry, looked up): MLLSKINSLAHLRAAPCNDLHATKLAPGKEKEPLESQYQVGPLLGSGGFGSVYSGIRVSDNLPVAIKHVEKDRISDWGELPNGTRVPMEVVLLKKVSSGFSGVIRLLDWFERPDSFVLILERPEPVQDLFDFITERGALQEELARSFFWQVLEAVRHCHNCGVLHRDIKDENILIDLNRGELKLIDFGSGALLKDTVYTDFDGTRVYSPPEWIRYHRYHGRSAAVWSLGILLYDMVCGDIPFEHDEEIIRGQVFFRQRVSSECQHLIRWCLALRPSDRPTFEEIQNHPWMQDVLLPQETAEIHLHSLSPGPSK
# mTORC2 (Homo sapiens) = mTORC2 (Homo sapiens) (UniProt P42345+Q6R327+Q9BVC4+Q9BPZ7); settings: U-87 MG, dose 0.025-2 µmol/L, time 6.0 hrs
# Rat1 = test: Inhibition of mTORC2 in rat Rat1 cells assessed as AKT phosphorylation at S473 level preincubated for 1 hrs in the presence of IGF-1 stimulation by immunoblot assay; type: cell-based; settings: dose 0.01-2 µmol/L
# [8] = target: Tyrosine-protein kinase BTK (Homo sapiens) (UniProt Q06187); test: Inhibition of recombinant human full-length His-tagged BTK expressed in insect cells at 2 uM using Tyr 01 as substrate measured after 1 hr by Z'-LYTE assay relative to control; settings: Insect cell
# [9] = target: Ephrin type-A receptor 3 (Homo sapiens) (UniProt P29320); test: Inhibition of recombinant human His-tagged EPHA3 (568-976 residues) expressed in baculovirus expression system at 2 uM measured after 1 hr by Z'-LYTE assay relative to control
# Ephrin type-A receptor 3 (Homo sapiens), sequence (P29320 whole entry, the tested form may be a part): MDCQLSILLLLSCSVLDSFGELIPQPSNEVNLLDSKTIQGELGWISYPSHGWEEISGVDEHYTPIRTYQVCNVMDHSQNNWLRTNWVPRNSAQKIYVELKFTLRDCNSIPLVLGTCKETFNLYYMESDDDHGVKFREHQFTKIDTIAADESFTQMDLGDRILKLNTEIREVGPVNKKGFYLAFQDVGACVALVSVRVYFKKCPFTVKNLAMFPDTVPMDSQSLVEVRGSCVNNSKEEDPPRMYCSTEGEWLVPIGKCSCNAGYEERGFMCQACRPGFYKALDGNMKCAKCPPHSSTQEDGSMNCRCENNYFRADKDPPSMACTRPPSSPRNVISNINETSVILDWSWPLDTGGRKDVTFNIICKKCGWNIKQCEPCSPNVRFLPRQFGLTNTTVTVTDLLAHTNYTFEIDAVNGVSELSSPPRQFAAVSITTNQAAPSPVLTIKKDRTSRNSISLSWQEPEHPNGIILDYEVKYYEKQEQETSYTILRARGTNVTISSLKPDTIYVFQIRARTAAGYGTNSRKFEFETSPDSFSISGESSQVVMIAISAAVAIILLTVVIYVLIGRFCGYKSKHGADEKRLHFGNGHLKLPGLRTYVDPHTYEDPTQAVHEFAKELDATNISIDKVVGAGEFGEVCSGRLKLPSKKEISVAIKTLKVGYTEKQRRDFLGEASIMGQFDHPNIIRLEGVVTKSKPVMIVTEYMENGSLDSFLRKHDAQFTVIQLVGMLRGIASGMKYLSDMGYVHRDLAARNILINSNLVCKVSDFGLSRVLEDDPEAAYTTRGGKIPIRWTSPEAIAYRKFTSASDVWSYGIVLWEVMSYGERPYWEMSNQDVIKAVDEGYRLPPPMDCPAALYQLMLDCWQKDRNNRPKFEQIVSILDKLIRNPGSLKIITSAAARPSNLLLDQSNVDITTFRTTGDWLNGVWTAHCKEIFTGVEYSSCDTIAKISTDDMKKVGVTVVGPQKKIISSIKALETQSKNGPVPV
# [10] = target: Glycogen synthase kinase-3 beta (Homo sapiens) (UniProt P49841); test: Inhibition of recombinant human full-length His-tagged GSK3B expressed in baculovirus expression system at 2 uM using Ser/Thr 09 as substrate measured after 1 hr by Z'-LYTE assay relative to control
# Glycogen synthase kinase-3 beta (Homo sapiens), sequence (P49841 whole entry, looked up, the tested form may be a part): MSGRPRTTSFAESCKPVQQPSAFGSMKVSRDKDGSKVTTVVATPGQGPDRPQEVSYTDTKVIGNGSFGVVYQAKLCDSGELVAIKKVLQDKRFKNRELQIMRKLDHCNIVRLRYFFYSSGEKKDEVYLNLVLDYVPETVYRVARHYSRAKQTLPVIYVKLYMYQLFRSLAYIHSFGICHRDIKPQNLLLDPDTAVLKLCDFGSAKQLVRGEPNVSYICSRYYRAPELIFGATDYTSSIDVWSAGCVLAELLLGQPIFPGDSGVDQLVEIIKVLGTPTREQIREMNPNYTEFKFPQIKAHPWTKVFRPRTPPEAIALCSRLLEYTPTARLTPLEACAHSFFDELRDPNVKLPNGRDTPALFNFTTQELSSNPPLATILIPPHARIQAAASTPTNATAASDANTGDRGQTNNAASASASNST
# [11] = target: Serine/threonine-protein kinase PAK 5 (Homo sapiens) (UniProt Q9P286); test: Inhibition of recombinant human His-tagged PAK7 (425-719 residues) expressed in baculovirus expression system at 2 uM using Ser/Thr 20 as substrate measured after 1 hr by Z'-LYTE assay relative to control
# Serine/threonine-protein kinase PAK 5 (Homo sapiens), sequence (Q9P286 whole entry, looked up, the tested form may be a part): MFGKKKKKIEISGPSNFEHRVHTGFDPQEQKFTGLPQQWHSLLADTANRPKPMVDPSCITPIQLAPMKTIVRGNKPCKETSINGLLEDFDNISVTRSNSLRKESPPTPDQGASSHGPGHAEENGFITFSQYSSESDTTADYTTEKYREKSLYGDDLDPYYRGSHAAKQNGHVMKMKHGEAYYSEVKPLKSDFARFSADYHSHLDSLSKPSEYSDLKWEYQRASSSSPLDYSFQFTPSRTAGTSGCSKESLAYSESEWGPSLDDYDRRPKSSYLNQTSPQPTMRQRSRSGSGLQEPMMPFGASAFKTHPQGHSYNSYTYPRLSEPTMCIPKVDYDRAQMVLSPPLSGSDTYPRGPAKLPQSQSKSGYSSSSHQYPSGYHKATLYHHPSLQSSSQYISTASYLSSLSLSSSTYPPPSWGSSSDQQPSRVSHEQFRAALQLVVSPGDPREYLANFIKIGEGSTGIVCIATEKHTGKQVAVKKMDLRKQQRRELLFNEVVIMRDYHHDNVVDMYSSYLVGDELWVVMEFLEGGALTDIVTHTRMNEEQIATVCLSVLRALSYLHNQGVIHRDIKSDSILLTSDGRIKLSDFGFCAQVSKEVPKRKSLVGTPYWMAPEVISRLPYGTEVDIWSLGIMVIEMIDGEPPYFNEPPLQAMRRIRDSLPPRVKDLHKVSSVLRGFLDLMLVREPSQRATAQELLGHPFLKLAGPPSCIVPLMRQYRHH
# A549 [12] = test: Induction of apoptosis in human A549 cells assessed as reduction in S phase at 1 micromol/L incubated for 24 hrs by FACS analysis; type: functional, cell-based; settings: dose 1.0 µmol/L
# HCT-116 = test: Antitumor activity against human HCT-116 cells xenografted in female nude mouse model assessed as reduction in P-AKT at T308 level at 50 mg/kg, iv administered once a week and measured at least 8 hrs by immunoblot analysis; type: functional, organism-based
# [13] = target: Ribosomal protein S6 kinase alpha-5 (Homo sapiens) (UniProt O75582); test: Inhibition of recombinant human full length GST-tagged RPS6KA5 expressed in insect cells at 2 uM using Ser/Thr 01 as substrate measured after 1 hr by Z'-LYTE assay relative to control; settings: Insect cell
# [14] = target: Protein kinase C gamma type (Homo sapiens) (UniProt P05129); test: Inhibition of recombinant human full length GST-tagged PRKCG expressed in insect cells at 2 uM using Ser/Thr 07 as substrate measured after 1 hr by Z'-LYTE assay relative to control; settings: Insect cell
# MDA-MB-361 [15] = test: Antitumor activity against human MDA-MB-361 cells xenografted in female nude mouse model assessed as P-AKT at T308 level at 6 to 12 mg/kg, po qd administered as 5 days on/2 days off regimen for 4 cycles by immunoblot analysis; type: functional, organism-based; settings: dose 6-12 mg/kg, time 28.0 day
# MDA-MB-361 [16] = test: Induction of apoptosis in human MDA-MB-361 cells assessed as decrease in AKT phosphorylation at S473 level at 0.05 to 5 micromol/L incubated for 48 hrs by Western blot analysis; type: functional, cell-based; settings: dose 0.05-5 µmol/L
# NCI-H1975 = test: Induction of apoptosis in human NCI-H1975 cells assessed as increase in PARP cleavage at 0.3 to 3 micromol/L incubated for 48 hrs by Western blot analysis; type: functional, cell-based; settings: dose 0.3-3 µmol/L
# [17] = target: Ephrin type-A receptor 5 (Homo sapiens) (UniProt P54756); test: Inhibition of recombinant human GST-tagged EPHA5 (595-1037 residues) expressed in insect cells at 2 uM using Tyr 01 as substrate measured after 1 hr by Z'-LYTE assay relative to control; settings: Insect cell
# [18] = target: Serine/threonine-protein kinase PLK1 (Homo sapiens) (UniProt P53350); test: Inhibition of recombinant human full length His-tagged PLK1 expressed in insect cells at 2 uM using Ser/Thr 16 as substrate measured after 1 hr by Z'-LYTE assay relative to control; settings: Insect cell
# Serine/threonine-protein kinase PLK1 (Homo sapiens), sequence (P53350 whole entry): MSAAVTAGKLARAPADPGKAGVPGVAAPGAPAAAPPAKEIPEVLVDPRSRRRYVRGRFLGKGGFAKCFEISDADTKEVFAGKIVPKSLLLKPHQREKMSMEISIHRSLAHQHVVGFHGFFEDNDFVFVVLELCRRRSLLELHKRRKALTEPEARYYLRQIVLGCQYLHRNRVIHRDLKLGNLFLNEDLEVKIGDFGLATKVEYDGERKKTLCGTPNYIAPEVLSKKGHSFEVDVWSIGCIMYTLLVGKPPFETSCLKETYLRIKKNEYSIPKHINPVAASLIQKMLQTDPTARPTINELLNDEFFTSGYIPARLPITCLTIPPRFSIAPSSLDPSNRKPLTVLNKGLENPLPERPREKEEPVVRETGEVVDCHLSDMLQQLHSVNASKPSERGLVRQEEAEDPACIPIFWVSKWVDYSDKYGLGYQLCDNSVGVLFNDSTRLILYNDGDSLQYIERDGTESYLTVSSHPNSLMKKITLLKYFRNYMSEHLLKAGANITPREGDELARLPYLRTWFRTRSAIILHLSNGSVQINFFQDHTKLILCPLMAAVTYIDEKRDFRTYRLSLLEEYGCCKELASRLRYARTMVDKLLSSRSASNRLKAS
# [19] = target: Ribosomal protein S6 kinase alpha-3 (Homo sapiens) (UniProt P51812); test: Inhibition of recombinant human full length His-tagged RPS6KA3 expressed in baculovirus expression system at 2 uM using Ser/Thr 06 as substrate measured after 1 hr by Z'-LYTE assay relative to control
# Ribosomal protein S6 kinase alpha-3 (Homo sapiens), sequence (P51812 whole entry): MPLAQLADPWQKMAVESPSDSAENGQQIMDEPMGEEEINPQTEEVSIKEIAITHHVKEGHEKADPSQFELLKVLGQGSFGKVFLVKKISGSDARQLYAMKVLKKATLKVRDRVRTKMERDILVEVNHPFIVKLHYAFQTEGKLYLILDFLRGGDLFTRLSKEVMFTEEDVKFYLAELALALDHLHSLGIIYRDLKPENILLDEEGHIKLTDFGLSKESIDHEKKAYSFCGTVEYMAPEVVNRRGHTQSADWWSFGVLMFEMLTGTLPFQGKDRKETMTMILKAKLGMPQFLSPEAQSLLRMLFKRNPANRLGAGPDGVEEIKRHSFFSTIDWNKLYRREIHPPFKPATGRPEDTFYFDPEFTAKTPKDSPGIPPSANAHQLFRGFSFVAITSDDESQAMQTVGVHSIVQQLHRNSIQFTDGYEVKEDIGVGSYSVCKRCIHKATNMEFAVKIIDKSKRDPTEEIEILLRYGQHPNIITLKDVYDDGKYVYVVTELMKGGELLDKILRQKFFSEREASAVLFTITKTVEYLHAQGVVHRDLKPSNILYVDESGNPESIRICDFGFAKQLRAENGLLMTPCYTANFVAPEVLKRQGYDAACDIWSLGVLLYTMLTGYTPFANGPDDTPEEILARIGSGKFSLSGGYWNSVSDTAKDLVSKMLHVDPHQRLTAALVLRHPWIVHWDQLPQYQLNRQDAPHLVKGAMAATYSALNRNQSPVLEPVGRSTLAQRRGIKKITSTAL
# [20] = target: Serine/threonine-protein kinase 24 (Homo sapiens) (UniProt Q9Y6E0); test: Inhibition of recombinant human full length GST-tagged STK24 expressed in insect cells at 2 uM using Ser/Thr 07 as substrate measured after 1 hr by Z'-LYTE assay relative to control; settings: Insect cell
# MDA-MB-361 [21] = test: Induction of apoptosis in human MDA-MB-361 cells assessed as increase in G1 phase at 5 micromol/L incubated for 24 hrs by FACS analysis relative to control; type: functional; settings: dose 5 µmol/L, at 5 µM
# High affinity nerve growth factor receptor (Homo sapiens), sequence (P04629 33-796 limits assumed): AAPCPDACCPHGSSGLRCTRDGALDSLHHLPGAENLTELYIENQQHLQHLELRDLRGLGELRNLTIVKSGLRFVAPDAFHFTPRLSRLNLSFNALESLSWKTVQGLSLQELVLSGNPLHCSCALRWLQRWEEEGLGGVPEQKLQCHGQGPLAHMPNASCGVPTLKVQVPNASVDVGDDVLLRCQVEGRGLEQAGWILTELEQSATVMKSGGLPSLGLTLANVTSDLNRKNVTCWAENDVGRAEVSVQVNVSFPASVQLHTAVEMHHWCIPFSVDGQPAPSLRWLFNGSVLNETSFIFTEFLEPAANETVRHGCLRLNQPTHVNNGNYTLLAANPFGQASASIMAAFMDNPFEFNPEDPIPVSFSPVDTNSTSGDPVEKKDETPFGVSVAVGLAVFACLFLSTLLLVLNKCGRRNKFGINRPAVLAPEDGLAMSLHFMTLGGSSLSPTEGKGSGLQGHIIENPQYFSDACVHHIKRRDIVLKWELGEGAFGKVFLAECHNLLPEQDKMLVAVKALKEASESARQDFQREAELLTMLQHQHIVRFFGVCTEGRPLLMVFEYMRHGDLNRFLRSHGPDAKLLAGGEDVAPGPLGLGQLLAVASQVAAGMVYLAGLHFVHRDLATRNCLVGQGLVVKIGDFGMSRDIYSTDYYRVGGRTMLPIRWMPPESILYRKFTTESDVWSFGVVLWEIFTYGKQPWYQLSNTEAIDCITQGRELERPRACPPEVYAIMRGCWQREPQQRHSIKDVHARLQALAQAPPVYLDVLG
compound,measurement,setting,value
CNC(=O)Nc1ccc(-c2nc(N3CC4CCC(C3)O4)c3cnn(C4CCC5(CC4)OCCO5)c3n2)cc1,inhibition,[1],7%
same,Activity,A549 [2],Active
same,Activity,MDA-MB-361 [3],Active
same,Activity,PC3MM2,Active
same,inhibition,[4],2%
same,inhibition,[5],4%
same,inhibition,[6],-1%
same,inhibition,[7],1%
same,inhibition,mTORC2 (Homo sapiens),inactive
same,inhibition,Rat1,Active
same,inhibition,[8],3%
same,inhibition,[9],4%
same,inhibition,[10],1%
same,inhibition,[11],11%
same,Activity,A549 [12],Active
same,Activity,HCT-116,inactive
same,inhibition,[13],1%
same,inhibition,[14],11%
same,Activity,MDA-MB-361 [15],inactive
same,Activity,MDA-MB-361 [16],Active
same,Activity,NCI-H1975,Active
same,inhibition,[17],2%
same,inhibition,[18],-4%
same,inhibition,[19],-2%
same,inhibition,[20],-1%
same,Activity,MDA-MB-361 [21],12%

# Source: ChEMBL document CHEMBL5696439 (Cancer Res, 2010)
